Results from paper PMC12406664, “New derivatives of 6-nitrocoumarin-3-thiosemicarbazone exhibit improved antiparasitic activity in the placenta against Trypanosoma cruzi and Toxoplasma gondii” (Antimicrobial Agents and Chemotherapy, 2025).

How the values were obtained:
[1] = Cytotoxicity on cells (resazurin), BeWo; format: cell-based; conditions: human, BeWo trophoblast cells
Description: Triton X-100 was used as a positive control, and untreated cells served as a negative control. In addition, the maximum concentration of DMSO was used as a control for the method. […] The obtained values were expressed as IC50([88]).

[2] = test system: T. cruzi trypomastigotes, Dm28 strain; assay: Resazurin viability assay on free T. cruzi trypomastigotes; conditions: Trypanosoma cruzi, 24 h, read-out: Viability T. cruzi (%)
Description: The reduction of resazurin sodium salt was used to determine the trypanocidal and toxoplasmicidal activity of the 6-nitrocoumarin-thiosemicarbazone hybrids 1–8. For this, treatment with the compounds was carried out for 24 h at a concentration of 100 µM.
NFX was used as a positive control for T. cruzi, and PMN was used for T. gondii. Untreated parasites served as a negative control. […] Subsequently, parasites with their respective conditions were transferred to a 96-well white fluorescence reading plate, adding resazurin at a final concentration of […] with 0.8 mM phenazine. The plate was incubated for 3 hours at 37°C in a humidified atmosphere with 5% CO2, and fluorescence measurements were taken using a microplate reader (Thermo Scientific Varioskan Flash) at excitation wavelengths of 560 nm and emission wavelengths of 590 nm.

[3] = test system: T. gondii (RH strain) in BeWo cells; assay: Infection of BeWo cells by T. gondii, infected cells counted by fluorescence microscopy; format: cell-based, Toxoplasma gondii; conditions: compound at IC50, untreated control 64 ± 6
Description: The effect of the compounds on the infection of BeWo trophoblast cells by T. gondii and T. cruzi was assessed. The DNA of T. gondii and T. cruzi was quantified in infected BeWo cells treated for 24 hours under two conditions: co-incubation and post-infection treatment. […] Fluorescence microscopy was employed to quantify the number of infected cells. The resulting images were analyzed using ImageJ software to count both infected and uninfected cells.
For the microscopic analysis of BeWo cells infected with T. cruzi, the cells were washed with PBS to remove the supernatant, fixed with 90% cold methanol, rewashed with PBS, and incubated for 5 minutes with 1 µg/mL—1 4,6-diamidino-2-phenylindole (DAPI) (Molecular Probes). To analyze BeWo cells infected with T. gondii, cells were fixed with 90% cold methanol, washed with PBS containing 0.05% Tween, and blocked using 3% BSA for 1 hour at 37°C. Then, they were incubated with the primary monoclonal antibody Toxoplasma gondii (TP3): sc-52255 at a dilution of 1:500 with 1% BSA overnight at 4°C. Afterward, the samples were incubated with the FITC anti-mouse IgG secondary antibody at a dilution of 1:100 with 1% BSA for 1 hour at 37°C. Finally, they were washed with PBS containing 0.05% Tween and incubated for 5 minutes with DAPI. Subsequently, the sections were mounted in Vectashield (ScyTek ACA). Sections for the analysis of cell infection by T. cruzi and T. gondii were observed under an epifluorescence microscope (Motic BA 310), and images were captured with a Motic 5 camera. T. cruzi amastigotes were identified by their morphology, including nuclear size and the presence of a kinetoplast, and were analyzed and quantified using ImageJ. At least 500 cells per condition were analyzed, and infected and non-infected cells were counted for every 100 cells ([35], [70]).
(§1) Cells or HPE were exposed to parasites. […] The following treatment conditions were used in both infection models. […] Untreated cells or HPE served as a negative control, and the compounds’ activity was compared with the reference drugs (NFX and PMN).

[4] = test system: T. gondii (RH strain) in BeWo cells; assay: T. gondii DNA load in infected BeWo cells by real-time qPCR; format: cell-based, Toxoplasma gondii; conditions: IC50 concentration
Description: as §1
Subsequently, cells were exposed to parasites at a 1:1 ratio (cell: parasite) for 24 hours. Finally, the cells were washed with PBS and harvested using trypsin. For the parasitic DNA load in the ex vivo infection model, HPE was incubated in 24-well plates and exposed to parasites at a concentration of 10^5 parasites/mL for 24 hours. Finally, they were washed with PBS and homogenized using the ultraturrax homogenizer OMNI TipTM. Genomic DNA was extracted from BeWo cells or HPE using the Wizard Genomic DNA Purification Kit (Promega, USA) following the manufacturer’s instructions. The resulting DNA was quantified using a μDrop Plate DNA quantification system on the Varioskan Flash multimode reader (Thermo Scientific, USA). For the amplification of human DNA and parasitic DNA, three pairs of primers specific for human GAPDH (hGADPH), T. cruzi satellite DNA, and T. gondii B1 gene DNA were used (Table 7). Each reaction mixture contained 0.5 µL of 10 nM of each primer (Forward and reverse), 1 ng of DNA from T. cruzi samples, 10 ng of DNA from T. gondii samples, 10 µL of SensiFASTTM SYBR Hi-ROX kit (Bioline, Heidelberg, Baden Württemberg, Germany), and ultrapure water (Sigma-Aldrich, St. Louis, MO, USA) for a total of 20 µL.
Amplification was carried out using the CFX96 Touch Deep Well Real-Time PCR Detection System (Biorad, California, USA) with the following cycling program: initial denaturation at 95°C for 3 min, followed by 40 cycles of denaturation at 95°C for 5 s, annealing at 60°C for 30 s, and a dissociation stage ranging from 60°C to 95°C. The relative quantification analysis of the results was expressed as RQ values using the comparative […] (∆∆Ct) ([80]).

[5] = test system: human placental explants (HPE); assay: Histopathology of uninfected HPE exposed to the compounds alone; conditions: explants incubated only with the compound, 24 h, IC50 concentration
Description: The HPE was fixed in 10% formaldehyde in 0.1 M phosphate buffer (pH 7.3) for 24 h, dehydrated in alcohol, clarified in xylene, embedded in paraffin, and sectioned at 3 µm. Paraffin histological sections were stained with hematoxylin-eosin for routine histological analysis, Picro Sirius red, and trichromic Masson for collagen histochemistry. Sections for the histological analysis were observed under an optical microscope (Leica DM500) and images were captured with a Leica ICC50 W camera ([7], [91]).

[6] = test system: T. gondii tachyzoites (strain RH); assay: ESR spin trapping with DMPO in T. gondii; format: cell-based, Toxoplasma gondii; conditions: compound about 1 mM, menadione 20 µM
Description: Each tested hybrid was dissolved in spectroscopy-grade DMSO at an approximate concentration of 1 mM and added to a mixture containing Trypanosoma cruzi (Dm28c strain) or Toxoplasma gondii at a density of 50 × 10⁶ trypomastigotes or tachyzoites per mL, along with DMPO at a final concentration of 250 mM. Menadione (20 µM) was used as a positive control.
All spectra were acquired on the same scale after 15 scans.

SMILES: C/C(=N\NC(N)=S)c1c(O)c2cc([N+](=O)[O-])ccc2oc1=O [Compound 1, (E)−2-(1-(4-hydroxy-6-nitro-2-oxo-2H-chromen-3-yl)ethylidene)hydrazine-1-carbothioamide]
- CC50 at 24 h [1]: 386.9 ± 1 µM
- viability at 100 µM [2]: 85.5 ± 11.3%
- Infected cells (%) ([3]; co-incubation 24 h): 32 ± 7%
- Infected cells (%) ([3]; post-infection treatment 24 h): 52 ± 4%
- decrease in parasite DNA load ([4]; co-incubation): around 50%
- effect on parasite DNA load ([4]; post-infection treatment): no activity against the intracellular form
- tissue damage caused by the compound itself in HPE [5]: neither compound induced tissue damage
- radical species detected by ESR spin trapping (DMPO) [6]: formation of only two spin adducts
